Test results published in publication PMC9404985, “Development of Dicationic Bisguanidine-Arylfuran Derivatives as Potent Agents against Gram-Negative Bacteria” (Antibiotics, 2022).

How the values were obtained:
[1] = system: Escherichia coli CCUG # 17620; assay: MIC of established antibiotics, micro-broth dilution; settings: CCUG17620, read-out: MIC Escherichia coli CCUG 17620
[2] = system: Escherichia coli CCUG # 67180; assay: as above; settings: CCUG67180, read-out: MIC Escherichia coli CCUG 67180
[3] = system: Klebsiella pneumoniae CCUG # 225T; assay: as above; settings: read-out: MIC Klebsiella pneumoniae CCUG 225T
[4] = system: Klebsiella pneumoniae CCUG # 58547; assay: as above; settings: CCUG58547, read-out: MIC Klebsiella pneumoniae CCUG 58547
[5] = system: Pseudomonas aeruginosa CCUG # 17619; assay: as above; settings: CCUG17619, read-out: MIC Pseudomonas aeruginosa CCUG 17619
[6] = system: Pseudomonas aeruginosa CCUG # 59347; assay: as above; settings: CCUG59347, read-out: MIC Pseudomonas aeruginosa CCUG 59347
[7] = system: Acinetobacter baumannii CCUG # 57250; assay: as above; settings: CCUG57250, read-out: MIC Acinetobacter baumannii CCUG 57250
[8] = system: Acinetobacter baumannii CCUG # 57035; assay: as above; settings: CCUG57035, read-out: MIC Acinetobacter baumannii CCUG 57035
[9] = system: Enterobacter cloacae CCUG # 6323T; assay: as above; settings: read-out: MIC Enterobacter cloacae CCUG 6323T
[10] = system: Enterobacter hormaechei CCUG # 58962; assay: as above; settings: CCUG58962, read-out: MIC Enterobacter hormaechei CCUG 58962
[11] = system: K. pneumoniae (CCUG #58547); assay: Antibacterial activity against isolates (Omnilog, Biolog redox dye); type: cell-based, Klebsiella pneumoniae; settings: Klebsiella pneumoniae, CCUG58547; ca-MH broth, 24 h, 37 °C
Procedure: (§1) The antibacterial activities of eight compounds (1, 3, 4, 6, 8, 10, 16, and 17) were tested against 10 different isolates of Gram-negative bacteria from human and other sources, two E. coli (CCUG #67180 and CCUG #17620/ATCC #25922, control strain), two K. pneumoniae (CCUG #58547 and CCUG #225T), two P. aeruginosa (CCUG #17619 and CCUG #59347), two A. baumannii (CCUG #57035 and CCUG #57250), E. cloacae (CCUG #6323T), and E. hormaechei (CCUG #58962) in a 96-well plate format. […] Bacterial mass from the ten isolates grown overnight on horse blood or Mueller–Hinton agar plates was suspended in ca-MH and adjusted to a final inoculum cell density of ~5 × 10^5 CFU/mL. For all assays, Biolog redox dye A diluted 100× from the stock solution was used for measurements of all ten isolates (up to a total volume of 120 µL per well). All plates included one well per isolate with only inoculum and dye but no test compound (i.e., positive control) and one well per isolate with inoculum, dye and DMSO diluted 1667×, corresponding to the DMSO concentration in the wells with the highest concentration of test compound. All measurements were performed using the Omnilog microplate reader (Biolog, Hayward, CA, USA) where the 96-well plates were read at 15 min intervals for a total of 24 h at 37 °C.

[12] = system: K. pneumoniae (CCUG #225T); assay: as above; type: cell-based, Klebsiella pneumoniae; settings: Klebsiella pneumoniae; ca-MH broth, 24 h, 37 °C
Procedure: (§2) The antibacterial activities of eight compounds (1, 3, 4, 6, 8, 10, 16, and 17) were tested against 10 different isolates of Gram-negative bacteria from human and other sources, two E. coli (CCUG #67180 and CCUG #17620/ATCC #25922, control strain), two K. pneumoniae (CCUG #58547 and CCUG #225T), two P. aeruginosa (CCUG #17619 and CCUG #59347), two A. baumannii (CCUG #57035 and CCUG #57250), E. cloacae (CCUG #6323T), and E. hormaechei (CCUG #58962) in a 96-well plate format. The compounds to test were 3-fold diluted in six steps in cation-adjusted Mueller-Hinton (ca-MH) broth to final concentrations spanning from 30 to 0.12 µM, i.e., a 1667–416,667 times dilution from the 50 mM stocks. Bacterial mass from the ten isolates grown overnight on horse blood or Mueller–Hinton agar plates was suspended in ca-MH and adjusted to a final inoculum cell density of ~5 × 10^5 CFU/mL. For all assays, Biolog redox dye A diluted 100× from the stock solution was used for measurements of all ten isolates (up to a total volume of 120 µL per well). All plates included one well per isolate with only inoculum and dye but no test compound (i.e., positive control) and one well per isolate with inoculum, dye and DMSO diluted 1667×, corresponding to the DMSO concentration in the wells with the highest concentration of test compound. All measurements were performed using the Omnilog microplate reader (Biolog, Hayward, CA, USA) where the 96-well plates were read at 15 min intervals for a total of 24 h at 37 °C.

[13] = system: P. aeruginosa (CCUG #17619); assay: as above; type: cell-based, Pseudomonas aeruginosa; settings: Pseudomonas aeruginosa, CCUG17619; ca-MH broth, 24 h, 37 °C
Procedure: as §2

[14] = system: P. aeruginosa (CCUG #59347); assay: as above; type: cell-based, Pseudomonas aeruginosa; settings: Pseudomonas aeruginosa, CCUG59347; ca-MH broth, 24 h, 37 °C
Procedure: as §1

[15] = system: A. baumannii (CCUG #57035); assay: as above; type: cell-based, Acinetobacter baumannii; settings: Acinetobacter baumannii, CCUG57035; ca-MH broth, 24 h, 37 °C
Procedure: as §1

[16] = system: A. baumannii (CCUG #57250); assay: as above; type: cell-based, Acinetobacter baumannii; settings: Acinetobacter baumannii, ca-MH broth, 24 h, 37 °C
Procedure: as §2

[17] = system: E. cloacae (CCUG #6323T); assay: as above; type: cell-based, Enterobacter cloacae; settings: Enterobacter cloacae; ca-MH broth, 24 h, 37 °C
Procedure: as §2

[18] = system: E. hormaechei (CCUG #58962); assay: as above; type: cell-based, Enterobacter hormaechei; settings: Enterobacter hormaechei, CCUG58962; ca-MH broth, 24 h, 37 °C
Procedure: as §1

[19] = system: E. coli (CCUG #17620/ ATCC #25922); assay: as above; type: cell-based, Escherichia coli; settings: Escherichia coli; ca-MH broth, 24 h, 37 °C
Procedure: as §2

[20] = system: E. coli (CCUG #67180); assay: as above; type: cell-based, Escherichia coli; settings: Escherichia coli, ca-MH broth, 24 h, 37 °C
Procedure: as §2

Compound	MIC [1] [µM]	MIC [2] [µM]	MIC [3] [µM]	MIC [4] [µM]	MIC [5] [µM]	MIC [6] [µM]	MIC [7] [µM]	MIC [8] [µM]	MIC [9] [µM]	MIC [10] [µM]	also measured
CC1(C)S[C@@H]2[C@H](NC(=O)[C@H](N)c3ccc(O)cc3)C(=O)N2[C@H]1C(=O)O [Amoxicillin]	11 to 44	350	350	350	350	350	175	175	350	350	
CO/N=C(\C(=O)N[C@@H]1C(=O)N2C(C(=O)O)=C(COC(C)=O)CS[C@H]12)c1csc(N)n1 [CTX, Cefotaxime, reference compound]	0.25 to 0.5	280	0.25	560	36	> 560	36	> 560	9 to 36	280	EC50 [11]: 324 µM; EC90 [11]: 478 µM; EC50 [12]: 0.2 µM; EC90 [12]: 0.3 µM; EC50 [13]: 13 µM; EC90 [13]: 18.4 µM; EC50 [14]: 1510 µM; EC90 [14]: 1680 µM; EC50 [15]: 430 µM; EC90 [15]: 681 µM; EC90 ([16]; CCUG57250, 24 h): 48 µM; EC50 ([16]; CCUG57250): 23.4 µM; EC50 [17]: 2.1 µM; EC90 [17]: 4.5 µM; EC50 [18]: 78.4 µM; EC90 [18]: 158 µM; EC50 [19]: 0.2 µM; EC90 [19]: 0.3 µM; EC90 ([20]; CCUG67180, 24 h): 183 µM; EC50 ([20]; CCUG67180): 161 µM
C[C@@H](O)[C@H]1C(=O)N2C(C(=O)O)=C(S[C@@H]3CN[C@H](C(=O)N(C)C)C3)[C@H](C)[C@H]12 [Meropenem]	0.16	10 to 20	0.16 to 0.32	> 80	2.6 to 5.2	335	40	335	0.6 to 1.2	0.3	
